# From ChEMBL document CHEMBL1201862, “PubChem BioAssay data set” (2004)
# Activity calls are given as the source filed them.
# What was measured:
# [1] = biological target: T1, Kappa-type opioid receptor (Homo sapiens, UniProt P41145); format: functional
# [2] = biological target: T2, Ubiquitin-conjugating enzyme E2 N (Homo sapiens, UniProt P61088); format: functional;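 further: Dose-response confirmation in a TR-FRET assay detecting UBC13-driven polyubiquitin chain formation, inhibition measured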
# T2 sequence (P61088 whole entry): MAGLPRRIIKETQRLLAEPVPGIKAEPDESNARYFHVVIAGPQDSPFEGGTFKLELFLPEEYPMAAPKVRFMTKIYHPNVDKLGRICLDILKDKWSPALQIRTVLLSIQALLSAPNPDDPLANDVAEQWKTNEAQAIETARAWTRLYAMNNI
# [3] = NIH3T3 cell viability loss – ATP luminescence, mouse fibroblasts, counter-screen, dose response (AID 2010); format: functional, cell-based;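 further: cells exposed to compound for about 90 hours before reading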
# Mu-type opioid receptor = Mu-type opioid receptor (Homo sapiens, UniProt P35372); test: HTS Image-Based Screen for Agonists of the MOR Receptor. [Related pubchem assays (depositor defined):AID1777, AID1785, AID1786, AID2133]; format: functional;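 further: imaging of beta-arrestin GFP recruitment into spots after receptor activation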
# [4] = biological target: T3, Delta-type opioid receptor (Homo sapiens, UniProt P41143); test: HTS Image-Based Screen for Antagonists of the DOR Receptor. [Related pubchem assays (depositor defined):AID1777, AID1785, AID1786, AID2133]; format: functional
# [5] = biological target: T1, Kappa-type opioid receptor; format: functional; remark: listed apart in the source
# [6] = biological target: E3 ubiquitin-protein ligase Mdm2 (Homo sapiens, UniProt Q00987); test: MDM2-luc reporter signal enhancers, multi-concentration potency testing, MDM2 ubiquitin-protein ligase inhibitor program, whole-cell format, luminescence detection, 384-well microplate (AID 1394); format: functional;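 further: MDM2 E3 inhibitors raise luminescence so EC50 is for signal enhancement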
# Beta-galactosidase [7] = biological target: T4, Beta-galactosidase (Escherichia coli, UniProt Q8VNN2); test: PubChem AID 485352; format: functional
# [8] = biological target: T5, Heat shock factor protein 1 (Mus musculus, UniProt P38532); test: enhancement of HSF1-driven luciferase signal – cell-based, NIH3T3, luminescence, dose retest, confirmation (AID 435004); format: functional;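 further: stress induced by proteasome inhibitor MG132 added 30 min after compound; luciferase reporter driven by HSF1 response element in NIH3T3 cells; actives raise luminescence as potentiators of the MG132 stress response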
# T5 sequence (P38532 whole entry): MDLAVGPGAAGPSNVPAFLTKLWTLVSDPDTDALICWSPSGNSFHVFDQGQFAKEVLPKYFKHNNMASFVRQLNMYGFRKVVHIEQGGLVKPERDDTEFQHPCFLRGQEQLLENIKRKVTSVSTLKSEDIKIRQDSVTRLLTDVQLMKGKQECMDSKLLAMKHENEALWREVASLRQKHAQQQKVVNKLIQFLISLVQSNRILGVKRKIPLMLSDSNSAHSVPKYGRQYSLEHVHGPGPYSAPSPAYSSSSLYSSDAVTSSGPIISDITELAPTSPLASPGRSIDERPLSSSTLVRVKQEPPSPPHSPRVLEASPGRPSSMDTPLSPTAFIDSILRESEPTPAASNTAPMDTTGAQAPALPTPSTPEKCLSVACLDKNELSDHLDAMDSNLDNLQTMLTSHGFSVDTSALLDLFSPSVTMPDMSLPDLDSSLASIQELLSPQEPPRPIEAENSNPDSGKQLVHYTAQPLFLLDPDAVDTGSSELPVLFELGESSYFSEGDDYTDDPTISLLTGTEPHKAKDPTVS
# [9] = biological target: T3, Delta-type opioid receptor; test: HTS Image-Based Screen for Agonists of the DOR Receptor. [Related pubchem assays (depositor defined):AID1777, AID1786, AID2133]; format: functional
# Streptococcus = test: GAS UMAA2166 growth inhibition – luminescence, BacTiterGlo, counter-screen for streptokinase expression inhibitor project, dose response (AID 1915); format: functional, organism-based;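 further: potency for reduction of bacterial viability or growth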
# [10] = bead-based luminescence quenchers, dual-tagged ARNT – biochemical, AlphaScreen, cherry-pick, artefact control for ARNT-TACC3 interaction inhibitor project, dose response (AID 651705); format: functional;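 further: AlphaScreen bead proximity signal that flags compounds interfering with the detection technology; potency reflects signal decrease which marks the compound as an assay artifact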
# [11] = biological target: T6, Type-1 angiotensin II receptor (Homo sapiens, UniProt P30556); test: antagonism of angiotensin II type 1 receptor – cell-based, uHTS hits, selectivity assay for APJ receptor antagonist project, dose response (AID 463214); format: functional;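 further: antagonist potency against angiotensin II stimulated AT1 response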
# T6 sequence (P30556 whole entry): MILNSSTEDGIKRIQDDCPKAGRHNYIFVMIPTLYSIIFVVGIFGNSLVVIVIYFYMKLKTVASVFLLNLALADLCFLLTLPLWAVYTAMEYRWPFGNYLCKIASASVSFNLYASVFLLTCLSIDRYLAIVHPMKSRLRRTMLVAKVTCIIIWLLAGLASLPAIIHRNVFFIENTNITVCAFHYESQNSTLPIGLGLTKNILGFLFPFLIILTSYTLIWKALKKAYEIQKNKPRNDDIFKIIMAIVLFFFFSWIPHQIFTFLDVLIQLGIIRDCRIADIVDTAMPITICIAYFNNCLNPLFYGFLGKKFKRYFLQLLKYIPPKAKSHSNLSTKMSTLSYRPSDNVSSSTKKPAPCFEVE
# [12] = test system: Streptococcus sp. 'group A'; test: Streptococcus pyogenes SK(-)GAS viability under kanamycin – luminescence, BacTiterGlo, confirmation, counter-screen for streptokinase expression inhibitor project, dose response (AID 1900); format: functional, organism-based
# Nonstructural protein 1 = Nonstructural protein 1 (Influenza A virus, UniProt Q194T2); format: functional, Influenza A virus (A/California/07/2009(H1N1))
# [13] = Trypanosoma cruzi growth suppression in host cells – NIH3T3 host cells, beta-gal luminescence, confirmation (AID 2044); format: functional, cell-based;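 further: intracellular parasites grown in NIH/3T3 mouse fibroblasts as host cells; luminescent beta-galactosidase reporter signal from transgenic T. cruzi replicating inside host cells; inhibitors lower the luminescence signal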
# Beta-galactosidase [14] = biological target: T4, Beta-galactosidase; format: functional
# [15] = RKO cell viability reduction, dose response, CellTiter-Glo luminescence (AID 1117322); format: functional
# [16] = SNU-C1 cell viability reduction, dose response, CellTiter-Glo luminescence (AID 1117323); format: functional, cell-based
# [17] = biological target: FAD-linked sulfhydryl oxidase ALR (Homo sapiens, UniProt P55789); test: ALR-catalysed DTT oxidation blockers – biochemical, H2O2 detection, luminescence, cherry-pick, dose response (AID 493248)
# [18] = biological target: Intestinal-type alkaline phosphatase (Homo sapiens, UniProt P09923); test: inhibition of human intestinal alkaline phosphatase – biochemical, dose response (AID 488876); format: functional
# [19] = biological target: T7, Alkaline phosphatase, tissue-nonspecific isozyme (Homo sapiens, UniProt P05186); test: TNAP enzyme inhibition by screening hits, dose response, selectivity assay for mouse IAP inhibitor project, biochemical, human TNAP, uHTS hits (AID 488906); format: functional
# T7 sequence (P05186 whole entry): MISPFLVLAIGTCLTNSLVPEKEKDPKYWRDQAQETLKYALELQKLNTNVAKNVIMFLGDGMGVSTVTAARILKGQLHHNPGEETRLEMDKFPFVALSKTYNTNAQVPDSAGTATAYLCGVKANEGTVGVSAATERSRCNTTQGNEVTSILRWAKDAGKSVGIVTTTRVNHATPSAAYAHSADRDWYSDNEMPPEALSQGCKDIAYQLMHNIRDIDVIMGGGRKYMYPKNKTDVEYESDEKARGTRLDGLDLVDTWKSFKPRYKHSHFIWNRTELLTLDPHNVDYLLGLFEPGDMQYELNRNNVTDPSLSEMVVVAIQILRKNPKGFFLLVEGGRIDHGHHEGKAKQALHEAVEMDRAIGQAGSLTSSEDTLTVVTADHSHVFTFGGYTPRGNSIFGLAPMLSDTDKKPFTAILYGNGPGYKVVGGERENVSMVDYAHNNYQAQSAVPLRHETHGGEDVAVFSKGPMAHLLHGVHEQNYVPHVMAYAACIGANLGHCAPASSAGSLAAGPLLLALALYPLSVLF
# [20] = biological target: Intestinal-type alkaline phosphatase (Mus musculus, UniProt P24822); test: PubChem AID 488785; format: functional
# [21] = cytotoxicity toward HCT116 cells – cell-based, CellTiter-Glo luminescence, IC50, dose response (AID 1117332); format: functional; settings: HCT-116
# [22] = biological target: T8, Apoptotic protease-activating factor 1 (Homo sapiens, UniProt O14727); format: functional
# T8 sequence (O14727 whole entry): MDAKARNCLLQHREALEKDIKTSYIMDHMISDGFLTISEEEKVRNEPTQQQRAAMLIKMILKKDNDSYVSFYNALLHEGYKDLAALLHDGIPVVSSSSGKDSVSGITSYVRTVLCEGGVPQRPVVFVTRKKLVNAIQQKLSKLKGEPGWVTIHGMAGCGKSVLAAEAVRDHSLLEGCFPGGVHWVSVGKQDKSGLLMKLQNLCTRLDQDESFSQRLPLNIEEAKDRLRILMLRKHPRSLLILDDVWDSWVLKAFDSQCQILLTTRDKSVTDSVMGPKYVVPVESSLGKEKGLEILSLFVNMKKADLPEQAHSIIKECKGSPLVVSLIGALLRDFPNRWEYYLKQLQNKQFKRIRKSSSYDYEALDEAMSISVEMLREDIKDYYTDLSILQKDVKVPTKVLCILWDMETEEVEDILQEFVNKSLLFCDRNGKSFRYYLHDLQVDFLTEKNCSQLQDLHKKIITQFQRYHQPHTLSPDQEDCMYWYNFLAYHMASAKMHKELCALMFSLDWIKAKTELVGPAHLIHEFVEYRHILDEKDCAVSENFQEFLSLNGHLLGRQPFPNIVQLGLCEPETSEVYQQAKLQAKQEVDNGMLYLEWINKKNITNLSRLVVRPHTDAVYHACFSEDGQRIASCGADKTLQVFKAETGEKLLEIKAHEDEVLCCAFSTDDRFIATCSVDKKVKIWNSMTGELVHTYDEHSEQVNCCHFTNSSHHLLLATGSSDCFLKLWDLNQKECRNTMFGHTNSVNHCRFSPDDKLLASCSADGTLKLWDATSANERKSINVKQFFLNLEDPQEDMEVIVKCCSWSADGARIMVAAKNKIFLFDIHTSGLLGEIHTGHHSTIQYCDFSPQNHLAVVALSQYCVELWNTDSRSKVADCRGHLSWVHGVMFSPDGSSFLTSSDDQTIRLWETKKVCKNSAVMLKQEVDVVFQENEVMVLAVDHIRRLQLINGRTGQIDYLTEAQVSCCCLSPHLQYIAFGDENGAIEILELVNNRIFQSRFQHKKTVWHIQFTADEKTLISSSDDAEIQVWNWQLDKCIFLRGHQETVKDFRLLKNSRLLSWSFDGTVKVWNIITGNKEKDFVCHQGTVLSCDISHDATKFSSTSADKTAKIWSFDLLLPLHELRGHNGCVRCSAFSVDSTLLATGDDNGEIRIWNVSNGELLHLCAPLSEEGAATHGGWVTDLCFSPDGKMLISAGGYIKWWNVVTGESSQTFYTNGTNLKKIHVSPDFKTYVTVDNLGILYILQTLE
# [23] = cytotoxicity toward Colo320 cells – cell-based, CellTiter-Glo luminescence, IC50, dose response (AID 1117334); format: functional; settings: COLO 320
# [24] = Luminescence Cell-Based Dose Confirmation HTS to Identify Inhibitors of Polyadenylation.; format: functional
# [25] = rise of 4N DNA cells, HeLa – IC50, dose response (AID 1117351); format: functional, cell-based
# Exodeoxyribonuclease V = Exodeoxyribonuclease V (Escherichia coli (strain K12), UniProt P04993+P07648+P08394); test: RecBCD inhibition via phage-restricted bacterial growth – absorbance, V66 E. coli, mutant T4 phage, counter-screen for AddAB inhibitor project, dose response (AID 492957); format: functional, cell-based, Escherichia coli str. K-12 substr. MG1655
# [26] = cytotoxicity toward HT-29 cells – cell-based, CellTiter-Glo luminescence, IC50, dose response (AID 1117330); format: functional
# [27] = HCT116 cell viability decrease, GSK3B pretreatment – CellTiter-Glo, IC50, dose response (AID 1117339); format: functional; settings: HCT-116
# [28] = Reduced DLD-1 viability, concentration-response, CellTiter-Glo luminescence (AID 1117352); format: functional
# [29] = rise of 2N DNA cells, HeLa – IC50, dose response (AID 1117349); format: functional, cell-based
# [30] = CellTiter-Glo luminescence survival assay, SW480 colon tumor line, concentration-response curve, half-maximal inhibitory concentration (AID 1117338); format: functional
# [31] = Counterscreen for AddAB inhibitors: absorbance-based bacterial cell-based high throughput dose response assay for inhibitors of bacterial viability. [Related pubchem assays (depositor defined):AID435030, AID449728, AID449731, AID488942, AID488955, AID488956]; format: functional
# T1 sequence (P41145 whole entry): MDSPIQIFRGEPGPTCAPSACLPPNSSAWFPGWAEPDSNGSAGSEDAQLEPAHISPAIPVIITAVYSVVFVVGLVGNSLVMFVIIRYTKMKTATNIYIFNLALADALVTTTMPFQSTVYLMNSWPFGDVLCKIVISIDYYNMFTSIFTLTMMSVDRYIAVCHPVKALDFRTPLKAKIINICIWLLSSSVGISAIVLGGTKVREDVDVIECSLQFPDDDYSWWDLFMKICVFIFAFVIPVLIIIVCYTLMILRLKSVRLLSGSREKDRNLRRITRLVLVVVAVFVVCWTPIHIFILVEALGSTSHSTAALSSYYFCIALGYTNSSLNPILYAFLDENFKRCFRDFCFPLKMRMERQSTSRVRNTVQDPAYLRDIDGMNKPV
# T3 sequence (P41143 whole entry): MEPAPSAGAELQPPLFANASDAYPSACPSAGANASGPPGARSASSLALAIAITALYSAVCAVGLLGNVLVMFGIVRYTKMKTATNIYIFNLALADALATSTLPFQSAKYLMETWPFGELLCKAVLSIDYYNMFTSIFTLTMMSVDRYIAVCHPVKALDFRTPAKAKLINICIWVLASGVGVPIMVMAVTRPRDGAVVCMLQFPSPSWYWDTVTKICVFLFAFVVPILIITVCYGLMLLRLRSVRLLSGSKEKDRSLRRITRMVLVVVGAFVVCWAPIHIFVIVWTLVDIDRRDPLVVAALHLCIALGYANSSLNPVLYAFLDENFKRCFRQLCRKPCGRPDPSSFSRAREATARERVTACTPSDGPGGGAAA
# Chain of Nonstructural protein 1 (Q194T2 whole entry): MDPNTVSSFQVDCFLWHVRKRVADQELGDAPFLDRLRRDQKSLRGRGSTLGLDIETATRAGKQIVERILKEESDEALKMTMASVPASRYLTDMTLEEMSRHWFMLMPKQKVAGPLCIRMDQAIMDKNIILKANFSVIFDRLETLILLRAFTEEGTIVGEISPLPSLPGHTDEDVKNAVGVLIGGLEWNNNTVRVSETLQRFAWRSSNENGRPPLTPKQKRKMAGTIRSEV
# T4 sequence (Q8VNN2 whole entry): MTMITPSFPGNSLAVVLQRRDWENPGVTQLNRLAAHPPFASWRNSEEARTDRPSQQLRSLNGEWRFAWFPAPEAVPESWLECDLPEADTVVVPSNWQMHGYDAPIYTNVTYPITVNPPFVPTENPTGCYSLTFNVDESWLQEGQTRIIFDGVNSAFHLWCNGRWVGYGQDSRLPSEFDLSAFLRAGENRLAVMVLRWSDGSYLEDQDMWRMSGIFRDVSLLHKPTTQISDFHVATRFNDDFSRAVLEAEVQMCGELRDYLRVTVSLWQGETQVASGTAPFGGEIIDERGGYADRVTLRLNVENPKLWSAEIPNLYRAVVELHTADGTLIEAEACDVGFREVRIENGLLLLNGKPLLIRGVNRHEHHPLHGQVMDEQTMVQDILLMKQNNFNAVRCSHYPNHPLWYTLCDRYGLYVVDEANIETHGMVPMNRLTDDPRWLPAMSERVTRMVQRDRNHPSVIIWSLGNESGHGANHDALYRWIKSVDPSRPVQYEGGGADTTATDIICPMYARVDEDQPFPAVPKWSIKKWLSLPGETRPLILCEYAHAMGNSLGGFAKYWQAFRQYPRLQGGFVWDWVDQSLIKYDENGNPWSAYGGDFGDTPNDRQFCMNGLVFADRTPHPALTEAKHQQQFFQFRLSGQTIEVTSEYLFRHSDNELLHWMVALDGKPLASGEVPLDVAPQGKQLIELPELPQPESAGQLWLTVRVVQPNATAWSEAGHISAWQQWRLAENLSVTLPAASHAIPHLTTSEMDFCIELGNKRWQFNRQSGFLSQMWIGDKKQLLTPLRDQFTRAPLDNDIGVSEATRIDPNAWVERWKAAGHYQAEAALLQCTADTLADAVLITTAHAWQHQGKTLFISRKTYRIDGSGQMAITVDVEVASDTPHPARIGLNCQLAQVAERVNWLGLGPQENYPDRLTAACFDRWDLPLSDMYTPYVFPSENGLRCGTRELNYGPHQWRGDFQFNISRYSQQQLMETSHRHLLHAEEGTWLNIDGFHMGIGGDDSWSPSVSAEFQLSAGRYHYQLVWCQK
# Chain of Intestinal-type alkaline phosphatase (Mus musculus, UniProt P24822) (P24822 whole entry): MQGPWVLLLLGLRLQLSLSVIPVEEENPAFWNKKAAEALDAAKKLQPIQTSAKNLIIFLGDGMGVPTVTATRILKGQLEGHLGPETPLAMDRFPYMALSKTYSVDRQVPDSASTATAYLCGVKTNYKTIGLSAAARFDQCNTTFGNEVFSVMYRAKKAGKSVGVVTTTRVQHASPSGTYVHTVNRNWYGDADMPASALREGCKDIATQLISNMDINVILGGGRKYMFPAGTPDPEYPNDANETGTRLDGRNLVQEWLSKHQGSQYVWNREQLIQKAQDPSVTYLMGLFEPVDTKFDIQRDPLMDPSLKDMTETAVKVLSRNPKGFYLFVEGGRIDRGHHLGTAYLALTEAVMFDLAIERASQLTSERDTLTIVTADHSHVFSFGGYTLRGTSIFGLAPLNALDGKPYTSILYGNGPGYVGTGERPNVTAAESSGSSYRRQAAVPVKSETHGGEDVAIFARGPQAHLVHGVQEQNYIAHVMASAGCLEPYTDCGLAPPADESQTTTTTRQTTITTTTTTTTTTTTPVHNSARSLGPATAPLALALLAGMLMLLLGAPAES
# Chain of Mu-type opioid receptor (P35372 whole entry): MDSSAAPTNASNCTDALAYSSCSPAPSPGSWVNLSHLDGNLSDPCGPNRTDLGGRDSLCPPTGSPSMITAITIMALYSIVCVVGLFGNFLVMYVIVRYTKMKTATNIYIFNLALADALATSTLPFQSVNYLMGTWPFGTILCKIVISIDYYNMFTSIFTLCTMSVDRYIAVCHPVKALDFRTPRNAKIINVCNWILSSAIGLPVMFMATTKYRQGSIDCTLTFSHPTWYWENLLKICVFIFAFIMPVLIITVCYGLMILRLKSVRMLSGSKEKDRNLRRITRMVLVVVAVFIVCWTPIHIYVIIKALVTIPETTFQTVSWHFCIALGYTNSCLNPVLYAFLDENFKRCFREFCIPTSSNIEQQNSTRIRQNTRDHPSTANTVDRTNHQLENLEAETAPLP
# Chain of E3 ubiquitin-protein ligase Mdm2 (Q00987 whole entry): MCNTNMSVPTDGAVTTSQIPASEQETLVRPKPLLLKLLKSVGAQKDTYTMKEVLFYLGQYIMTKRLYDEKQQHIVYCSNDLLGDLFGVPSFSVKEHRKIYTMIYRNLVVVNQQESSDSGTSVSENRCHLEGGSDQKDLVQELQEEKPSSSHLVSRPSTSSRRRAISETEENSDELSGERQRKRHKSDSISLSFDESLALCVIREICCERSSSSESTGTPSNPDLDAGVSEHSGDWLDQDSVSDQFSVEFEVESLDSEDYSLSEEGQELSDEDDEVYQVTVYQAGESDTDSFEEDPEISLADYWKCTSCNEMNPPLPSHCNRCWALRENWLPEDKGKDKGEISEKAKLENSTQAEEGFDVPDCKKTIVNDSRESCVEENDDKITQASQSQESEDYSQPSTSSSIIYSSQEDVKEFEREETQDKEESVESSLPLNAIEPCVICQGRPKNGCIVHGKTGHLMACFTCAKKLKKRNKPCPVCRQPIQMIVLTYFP
# Chain of FAD-linked sulfhydryl oxidase ALR (P55789 whole entry): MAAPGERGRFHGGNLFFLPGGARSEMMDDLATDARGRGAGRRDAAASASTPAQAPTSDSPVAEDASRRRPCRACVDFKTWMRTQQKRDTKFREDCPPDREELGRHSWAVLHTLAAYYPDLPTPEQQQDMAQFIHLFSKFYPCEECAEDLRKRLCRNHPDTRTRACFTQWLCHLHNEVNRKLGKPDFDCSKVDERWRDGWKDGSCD
# Chain of Intestinal-type alkaline phosphatase (Homo sapiens, UniProt P09923) (P09923 whole entry): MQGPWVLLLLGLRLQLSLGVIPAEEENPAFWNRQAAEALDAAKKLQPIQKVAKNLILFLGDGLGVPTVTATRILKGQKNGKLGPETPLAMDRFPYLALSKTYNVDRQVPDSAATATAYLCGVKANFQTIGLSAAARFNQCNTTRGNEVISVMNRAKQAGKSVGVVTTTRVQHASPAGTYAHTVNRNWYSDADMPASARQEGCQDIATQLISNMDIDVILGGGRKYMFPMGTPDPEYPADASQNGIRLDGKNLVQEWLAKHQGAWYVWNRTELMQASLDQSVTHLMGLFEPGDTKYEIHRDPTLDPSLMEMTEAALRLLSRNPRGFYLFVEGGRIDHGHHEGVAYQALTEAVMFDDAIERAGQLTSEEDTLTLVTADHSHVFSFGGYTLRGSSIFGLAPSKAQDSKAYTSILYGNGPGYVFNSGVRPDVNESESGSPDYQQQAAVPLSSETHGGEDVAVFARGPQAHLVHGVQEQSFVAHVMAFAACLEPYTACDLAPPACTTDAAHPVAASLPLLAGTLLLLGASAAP
smiles,measurement,setting,value
COCc1cc(O)nc(Nc2nc3ccc(C)cc3o2)n1,IC50,[1],> 32 µM
same,IC50,[2],> 20 µM (inactive)
same,EC50,[3],4.89 µM (active)
same,EC50,Mu-type opioid receptor,> 32 µM (inactive)
same,IC50,[4],> 32 µM (inactive)
same,IC50,[5],7.12 µM (active)
same,EC50,[6],0.56 µM (active)
same,EC50,Beta-galactosidase [7],> 40 µM (inactive)
same,EC50,[8],11.1 µM (active)
same,EC50,[9],> 32 µM (inactive)
same,EC50,Streptococcus,7.89 µM (active)
same,AC50,[10],103 µM (active)
same,IC50,[11],6.83 µM (active)
same,EC50,[12],2.11 µM (active)
same,IC50,Nonstructural protein 1,16.1 µM (active)
same,EC50,[13],1.87 µM (active)
same,EC50,Beta-galactosidase [14],> 31.5 µM (inactive)
CCN1/C(=C/C=C/c2sc3ccccc3[n+]2CC)Sc2ccccc21,IC50,[15],0.00898 µM (active)
same,IC50,[16],0.0172 µM (active)
same,AC50,[17],0.522 µM (active)
same,IC50,[18],> 100 µM (inactive)
same,IC50,[19],74.8 µM (active)
same,IC50,[20],1.55 µM (active)
same,IC50,[21],0.00957 µM (active)
same,IC50,[22],20.8 µM (active)
same,IC50,[23],0.562 µM (active)
same,EC50,Streptococcus,3 µM (active)
same,EC50,[24],11.1 µM (active)
same,IC50,[25],> 10 µM (inactive)
same,EC50,[12],2.54 µM (active)
same,IC50,Exodeoxyribonuclease V,80.9 µM (inactive)
same,IC50,Nonstructural protein 1,9.73 µM (active)
same,IC50,[26],0.00838 µM (active)
same,IC50,[27],0.00875 µM (active)
same,IC50,[28],0.0148 µM (active)
same,IC50,[29],8.51 µM (inactive)
same,IC50,[30],0.172 µM (active)
same,IC50,[31],99.5 µM (inactive)
